{"source": "patent US11998005B2", "about": "“Herbicidal formulations comprising glyphosate and COTE-based adjuvants” (NOURYON CHEMICALS INTERNATIONAL B.V., priority 2018, dated 2024)", "system": "wheat representing narrow leaf weeds", "test": "Bioefficacy, greenhouse spray test with IPA glyphosate + adjuvant", "type": "in vivo", "conditions": "compared to untreated plant", "experimental": "All bioefficacy testing was done at University of Georgia's Agricultural Experiment Station in Griffin, Georgia Concentrates were first formulated by blending IPA glyphosate salt with the desired amount surfactant and water resulting in a 20 wt % ae and a 6.49% surfactant solution. Prior to spraying two sets of diluted solutions were prepared by dissolving 16 g of concentrates into 984 grams of tap water and a second set by dissolving 500 g of the above dilute solution into 500 g of tap water. […] All of the plants were placed in a temperature controlled greenhouse and measured for growth (or lack of) each week for a period of 4 weeks. The data is reported as % Growth Control compared to untreated plant. The higher the value the better the bioefficacy. When the last measurement was taken at 4 weeks the plants are cut at the roots and the “fresh” weight measured.\nTesting in the foregoing manner yielded the following results: • Plant Species—Wheat • IPA-glyphosate application rate—300 g a.e./H\n• Plant Species—Wheat • IPA-glyphosate application rate—600 g a.e./H"}
{"smiles": "O=C(O)CNCP(=O)(O)O", "note": "[IPA-Glyphosate only, N-phosphonomethylglycine]", "values": [{"measurement": "% Growth Control", "setting": "IPA-glyphosate application rate 300 g a.e./H", "value": 31, "unit": "%"}, {"measurement": "% Growth Control", "setting": "IPA-glyphosate application rate 600 g a.e./H", "value": 72, "unit": "%"}]}
